In patent US20240182460A1, “ALLOSTERIC CHROMENONE INHIBITORS OF PHOSPHOINOSITIDE 3-KINASE (PI3K) FOR THE TREATMENT OF DISEASE” (PETRA PHARMA CORPORATION, priority 2022, published 2024) one finds microsomal CLint data, which are given here for five molecules.

A short description of this data set: Metabolic stability and intrinsic clearance in human liver microsomes (MICS). It counts as in vitro ADME. The note with it: pH 7.4. The procedure, abridged: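 Test compound (1 μM final) incubated at 37° C with liver microsomes (0.5 mg/mL protein) in 100 mM phosphate buffer pH 7.4, with 1 mM NADPH or without cofactor; sampled at 0.5–60 min, quenched with cold acetonitrile. Parent remaining quantified by LC-MS/MS; t1/2 from ln-% remaining slope converted to CLint (μL/min/mg protein).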
Background: Microsomes from liver hold many membrane-bound enzymes, among them those of drug oxidation.

Where two headings read alike, the source gives them in different places.

For the molecule `CC(=O)Nc1ccc(-c2oc3c([C@@H](C)Oc4ccc(Cl)nc4C(N)=O)cc(C)cc3c(=O)c2C)cc1` [Example 58C, 3-[(1R)-1-[2-(4-Acetamidophenyl)-3,6-dimethyl-4-oxo-chromen-8-yl]ethoxy]-6-chloro-pyridine-2-carboxamide], the microsomal CLint at 1 μM (human, microsomes) was less than 50 µL/min/mg.
Same read-out and setting: the figure for `Cc1cc([C@@H](C)Oc2ccc(Cl)nc2-c2noc(=O)[nH]2)c2oc(-c3ccc4c(c3)OC(F)(F)O4)c(C)c(=O)c2c1` [Example 46A, 3-[6-Chloro-3-[(1R)-1-[2-(2,2-difluoro-1,3-benzodioxol-5-yl)-3,6-dimethyl-4-oxo-chromen-8-yl]ethoxy]-2-pyridyl]-4H-1,2,4-oxadiazol-5-one] is less than 50 µL/min/mg; for `Cc1cc([C@@H](C)Oc2ccc(Br)nc2C(N)=O)c2oc(-c3ccc4nn(C)cc4c3)c(C)c(=O)c2c1` [Example 81C, 6-Bromo-3-[(1R)-1-[3,6-dimethyl-2-(2-methylindazol-5-yl)-4-oxo-chromen-8-yl]ethoxy]pyridine-2-carboxamide] it is less than 50 µL/min/mg.
Regarding `Cc1cc([C@@H](C)Oc2ccc(Cl)nc2NS(C)(=O)=O)c2oc(-c3cnn(C)c3)c(C)c(=O)c2c1` [Example 149A, N-[6-Chloro-3-[(1R)-1-[3,6-dimethyl-2-(1-methylpyrazol-4-yl)-4-oxo-chromen-8-yl]ethoxy]-2-pyridyl]methanesulfonamide], the microsomal CLint at 1 μM (human liver microsomes 0.5 mg/mL, 1 μM compound, read-out: intrinsic clearance in human MICS) was less than 50 µL/min/mg.
Molecule `Cc1cc([C@@H](C)Oc2ccc(Cl)nc2C(N)=O)c2oc(-c3cc(F)c4nn(C)cc4c3)c(C)c(=O)c2c1` [Example 17B, 6-Chloro-3-[(1R)-1-[2-(7-fluoro-2-methyl-indazol-5-yl)-3,6-dimethyl-4-oxo-chromen-8-yl]ethoxy]pyridine-2-carboxamide] showed a microsomal CLint at 1 μM (human, microsomes) of less than 50 µL/min/mg.
